Test results published in the supplement of paper PMC5579334.

Columns and labels:
[1] = test system: HSC1; assay: relative IC50 (inflection point of fitted dose-response curve, CellTiter-Glo viability, 72 h; top asymptote may be below 50% inhibition); higher = less potent
Outline: (§1)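 For this screen, 384-well plates were preprinted with each compound at five concentrations in 10-fold steps and seeded with MPNST cell lines or primary human Schwann cells at 750–1000 cells per well. Incubation lasted 72 h at 37 °C, 5% CO2, and CellTiter-Glo ATP luminescence, scaled between vehicle and positive-control wells and averaged over duplicates where available, served as viability. Logistic fits with four parameters were applied. Relative IC50 (censored at the top concentration) and drug sensitivity score derive from these fits, and percent inhibition is at the top concentration.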

[2] = test system: S462; assay: as above
Outline: as §1

[3] = test system: ST8814; assay: as above
Outline: as §1

[4] = test system: HSC2; assay: as above
Outline: as §1

[5] = test system: STS26T; assay: as above
Outline: as §1

[6] = test system: S1507-2; assay: as above
Outline: as §1

[7] = test system: HSC1; assay: relative IC50 (inflection point of fitted dose-response curve, CellTox-Green cytotoxicity, 72 h; top asymptote may be below 50%); higher = less potent
Outline: (§2)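 MPNST cell lines and primary human Schwann cells were grown for 72 h at 37 °C in 384-well plates containing five 10-fold compound dilutions. CellTox-Green, added before seeding at a final 1:1000 dilution, gave fluorescence from DNA released by disrupted cells, and signals were scaled to vehicle and positive-control wells. Curves were fitted with a four-parameter logistic model. Drug sensitivity score and relative IC50 come from these fits, with IC50 censored at the top concentration.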

[8] = test system: ST8814; assay: as above
Outline: as §2

[9] = test system: HSC2; assay: as above
Outline: as §2

[10] = test system: STS26T; assay: as above
Outline: as §2

[11] = test system: HS-Sch-2; assay: relative IC50 (inflection point of fitted dose-response curve, CellTiter-Glo viability, 72 h; top asymptote may be below 50% inhibition); higher = less potent
Outline: as §1

[12] = test system: YST-1; assay: as above
Outline: as §1

[13] = test system: HS-PSS; assay: relative IC50 (inflection point of fitted dose-response curve, CellTox-Green cytotoxicity, 72 h; top asymptote may be below 50%); higher = less potent
Outline: as §2

[14] = test system: HS-PSS; assay: relative IC50 (inflection point of fitted dose-response curve, CellTiter-Glo viability, 72 h; top asymptote may be below 50% inhibition); higher = less potent
Outline: as §1

Row | Structure (SMILES) | relative IC50 [1] [µM] | relative IC50 [2] [µM] | relative IC50 [3] [µM] | relative IC50 [4] [µM] | relative IC50 [5] [µM] | relative IC50 [6] [µM] | relative IC50 [7] [µM] | relative IC50 [8] [µM] | relative IC50 [9] [µM] | relative IC50 [10] [µM] | relative IC50 [11] [µM] | relative IC50 [12] [µM] | relative IC50 [13] [µM] | relative IC50 [14] [µM]
1 | Cc1ccc([N+](=O)[O-])cc1S(=O)(=O)N(C)/N=C/c1cnc2ccc(Br)cn12 [PIK-75] | 0.175 | 0.186 | 0.212 | 0.161 | 0.143 | 0.275 | 0.299 | 0.567 | 0.33 | 0.16 |  |  |  | 
2 | c1cc(CN2CCCNCCNCCCNCC2)ccc1CN1CCCNCCNCCCNCC1 [Plerixafor aq] | > 10 | > 10 | > 10 | > 10 | > 10 | > 10 | > 10 | > 10 | 2.81 |  |  |  |  | 
3 | Cn1cnc2c(F)c(Nc3ccc(Br)cc3Cl)c(C(=O)NOCCO)cc21 [Selumetinib] | 2.6 | 0.736 | 0.727 | 1.71 | 0.24 | 0.301 | > 10 |  | > 10 | > 10 | 2.03 | > 10 | > 10 | 
4 | COc1ncc(-c2ccc3nccc(-c4ccnnc4)c3c2)cc1NS(=O)(=O)c1ccc(F)cc1F | 0.0227 | 0.0632 | 0.0522 | 0.0255 | 0.0185 | 0.0176 | > 1 | 0.161 | > 1 |  |  |  |  | 
5 | Cc1c(CN2CCN(C(=O)[C@H](C)O)CC2)sc2c(N3CCOCC3)nc(-c3cnc(N)nc3)nc12 [GDC-0980] | 0.636 | 0.617 | 1.06 | 0.469 | 0.486 | 0.447 | > 10 | 2.88 | > 10 | > 10 |  |  |  | 
6 | Nc1ccn([C@@H]2O[C@H](CO)[C@@H](O)[C@@H]2O)c(=O)n1 [Cytarabine] | 0.283 | 0.163 | 0.689 | 0.29 | 0.236 | 1.52 | 2.18 | 0.786 | 1.96 |  | 0.688 | 0.21 | 0.336 | 0.479
7 | CC1(C)CNc2cc(NC(=O)c3cccnc3NCc3ccncc3)ccc21 [Motesanib] | > 10 | > 10 | > 10 |  | > 10 | > 10 | > 10 | > 10 | > 10 | > 10 | > 10 |  | > 10 | > 10
8 | Nc1ncnc2c1nc(Cl)n2[C@@H]1O[C@H](CO)[C@@H](O)[C@H]1O [8-chloro-adenosine] | 3.55 | 1.59 | 1.24 | 3.82 | 2.8 | 1.89 | > 50 |  | > 50 | 2.82 | 2.96 | 2.58 | > 50 | 6.59
9 | Cn1c(=O)c(F)c(Nc2ccc(I)cc2F)c2c(=O)n(C[C@@H](O)CO)cnc21 [TAK-733] | 0.0973 | 0.0585 | 0.0879 | 0.0906 | 0.0251 | 0.085 | > 1 | 0.218 | > 1 |  | 0.152 |  | > 1 | 0.162
10 | Clc1ccc(C(c2ccccc2Cl)C(Cl)Cl)cc1 (stereo not drawn) [Mitotane] | > 10 | > 10 |  | > 10 | > 10 | > 10 | > 10 | > 10 | > 10 | > 10 | > 10 | > 10 | > 10 | > 10
11 | O=C(O)c1ccc(-c2c[nH]c3ncc(-c4ccccc4)cc23)cc1C1CCCC1 | > 10 | > 10 | > 10 |  | > 10 | > 10 | > 10 | > 10 | > 10 | > 10 | 2.98 | > 10 | > 10 | 
12 | FC(F)c1nc2ccccc2n1-c1nc(N2CCOCC2)nc(N2CCOCC2)n1 [ZSTK474] | 0.876 | 0.582 | 0.658 | 0.692 | 0.244 | 0.251 | > 10 | > 10 |  |  | 1.05 | 0.248 | > 10 | 0.831
13 | C[C@]1(O)C[C@@H](c2nc(-c3ccc4ccc(-c5ccccc5)nc4c3)c3c(N)nccn32)C1 [Linsitinib] | 0.00391 | 0.101 | > 10 | > 10 |  | 0.0207 | > 10 | > 10 | > 10 | > 10 | 0.77 | 0.567 | > 10 | > 10
14 | NC(=O)c1ccc(I)c([N+](=O)[O-])c1 [Iniparib] | > 10 | > 10 | > 10 | > 10 | > 10 | > 10 | > 10 | > 10 | > 10 |  | > 10 | > 10 | > 10 | > 10
